From US20030083469A1, “Allosteric control of nuclear hormone receptors” (The Salk Institute for Biological Studies, priority 1995, published 2003)

Experiments:
GST-RXR/RAR heterodimers = molecular target: T1, GST-RXR/RAR heterodimers (Homo sapiens, UniProt P10276+P19793); experiment: Ligand binding assay with GST-RXR/RAR heterodimers
T1 sequence (P19793 1-462): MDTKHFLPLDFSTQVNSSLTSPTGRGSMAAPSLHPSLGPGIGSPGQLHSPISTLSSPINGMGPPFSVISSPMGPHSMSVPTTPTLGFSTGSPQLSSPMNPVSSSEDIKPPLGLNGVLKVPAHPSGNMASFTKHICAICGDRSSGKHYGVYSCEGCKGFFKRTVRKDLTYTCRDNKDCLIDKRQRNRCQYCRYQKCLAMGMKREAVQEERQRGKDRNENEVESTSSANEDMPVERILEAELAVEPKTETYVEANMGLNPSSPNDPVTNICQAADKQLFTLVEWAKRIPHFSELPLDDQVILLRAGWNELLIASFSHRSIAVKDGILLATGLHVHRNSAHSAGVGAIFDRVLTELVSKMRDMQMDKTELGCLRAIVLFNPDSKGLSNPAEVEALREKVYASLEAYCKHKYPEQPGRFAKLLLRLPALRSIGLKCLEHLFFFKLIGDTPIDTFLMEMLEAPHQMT
T1 sequence (P10276 1-462): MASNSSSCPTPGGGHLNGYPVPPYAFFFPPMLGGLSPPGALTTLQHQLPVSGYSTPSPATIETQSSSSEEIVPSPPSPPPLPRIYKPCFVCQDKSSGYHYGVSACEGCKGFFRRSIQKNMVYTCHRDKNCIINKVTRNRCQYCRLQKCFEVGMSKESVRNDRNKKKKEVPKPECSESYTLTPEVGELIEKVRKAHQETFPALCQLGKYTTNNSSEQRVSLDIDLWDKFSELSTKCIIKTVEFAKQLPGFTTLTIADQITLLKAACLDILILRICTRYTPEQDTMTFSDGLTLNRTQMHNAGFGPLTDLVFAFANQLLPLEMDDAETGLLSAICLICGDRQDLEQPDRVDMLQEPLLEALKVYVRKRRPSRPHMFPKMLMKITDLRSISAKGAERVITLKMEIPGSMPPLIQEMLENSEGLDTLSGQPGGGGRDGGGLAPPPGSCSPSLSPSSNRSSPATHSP

GAL-RXR + RAR LBD = molecular target: T2, GAL-RXR + RAR LBD (Homo sapiens, UniProt P10276+P19793); experiment: Transient transfection analysis of GAL-RXR LBD in the presence of RAR LBD; assay type: cell-based
T2 construct: human RXRα LBD (Glu 203 - Thr 462); HRARα LBD (Glu 156 - PRO 462); expressed in transfected cells; host or cells: CV-1
T2 sequence (P19793 203-462): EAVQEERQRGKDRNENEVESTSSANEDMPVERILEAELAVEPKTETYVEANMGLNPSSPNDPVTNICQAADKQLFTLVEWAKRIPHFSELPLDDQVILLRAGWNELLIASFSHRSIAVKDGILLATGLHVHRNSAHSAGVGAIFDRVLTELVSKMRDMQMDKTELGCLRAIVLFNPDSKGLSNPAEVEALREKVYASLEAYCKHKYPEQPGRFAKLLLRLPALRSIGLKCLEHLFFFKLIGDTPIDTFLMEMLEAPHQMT
T2 sequence (P10276 156-462): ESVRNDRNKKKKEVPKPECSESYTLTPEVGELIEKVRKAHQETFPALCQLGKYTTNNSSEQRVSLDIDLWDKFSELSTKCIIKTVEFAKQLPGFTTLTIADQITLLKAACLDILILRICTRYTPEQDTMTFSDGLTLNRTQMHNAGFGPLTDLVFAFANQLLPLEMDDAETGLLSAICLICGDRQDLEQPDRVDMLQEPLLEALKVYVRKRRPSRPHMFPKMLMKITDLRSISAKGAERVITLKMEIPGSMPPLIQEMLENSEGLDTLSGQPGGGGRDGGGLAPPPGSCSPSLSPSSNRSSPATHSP
Experimental: (§1) CV-1 cells were grown in Dulbecco's Modified Eagle's medium supplemented with 10% resin-charcoal stripped (Samuels et al., Endocrinology 105:80-85 (1979)) fetal bovine serum, 50 U/ml penicillin G and 50 μg/ml streptomycin sulfate (DMEM-FBS) at 37° C. in 5% CO2. One day prior to transfection, cells were plated to 50-80% confluence using phenol-red free DMEM-FBS. Cells were transfected by lipofection using N-{2-(2,3)-dioleoyloxy)propyl-N,N,N-trimethyl ammonium methyl sulfate} according to the manufacturer's instructions (DOTAP, Boehringer Mannheim). […]. All points were performed in triplicate in each experiment and varied by less than 10%. Each experiment was repeated three or more times with similar results.
Thus, a chimeric protein was constructed containing the yeast GAL4 DBD linked to the RXR LBD (GAL-RXR). The ability of this RXR-chimera to respond to LG69 was initially examined in the presence of truncated receptors containing the LBDs of T3R or RAR. Thus, transient transfection analysis of GAL-RXR LBD was carried out in the presence of T3R, RAR or VDR LBDs. Reporter constructs contained 4 copies of the UASG cloned upstream of the TK-LUC reporter. […] Normalized luciferase activity was determined and plotted as reporter activity (see FIG. 3).
[…]. Normalized luciferase activity was determined and plotted as fold-activation relative to untreated cells.

RXR = molecular target: T3, RXR (Homo sapiens, UniProt P19793); experiment: Transient transfection of RXR on CRBPII TK-LUC reporter; assay type: cell-based; conditions: limiting RXR (20 ng/10^5 cells); LG69
T3 construct: transient transfection analysis of full-length Nurrl and/or RXR; expressed in transfected cells; host or cells: CV-1
T3 sequence (P19793 1-462): T1 sequence (P19793 1-462)
Experimental: as §1
Using sub-optimal amounts of RXR-expression vector, the CRBPII reporter was compared with a 3-copy NBRE reporter as follows. Cells were transfected as described with respect to FIG. 7B, but with a 5-fold lower amount of CMX-hRXRα (20 ng/10^5 cells). CRBPII TK-LUC (300 ng/10^5 cells) was used where indicated.

## CC=C(c1ccc(C(=O)O)cc1)c1cc2c(cc1C)C(C)(C)CCC2(C)C [LG69, 4-{1-(3,5,5,8,8-pentamethyl-5,6,7,8-tetrahydro-2-napthalenyl)-1-propenyl}benzoic acid]
GST-RXR/RAR heterodimers; 50 nM [3H] 9-cis RA, 2 μM Am580 + 2 μM LG69
  competition of [3H] 9-cis RA binding by addition of both Am580 and LG69: Nearly complete competition
GST-RXR/RAR heterodimers; 50 nM [3H] LG69, 500 ng hRARα
  decrease in the amount of [3H] LG69 bound to GST-RXR on addition of RAR: < 85%
GAL-RXR + RAR LBD; GAL-RXR + RAR LBD, 50 nM AM580+100 nM LG69
  transcriptional activity with Am580+LG69 over that seen with AM580 alone: increased transcriptional activity
GAL-RXR + RAR LBD; unliganded RAR LBD present, 100 nM LG69
  fold-responsiveness of GAL-RXR to LG69: strongly suppressed
RXR
  activation of the CRBPII reporter: minimal activation
